Experimental findings from patent publication US20260174814A1 (DR. OREGONIN INC., priority 2023, published 2026) are described below.

The nature of this series: Protective effect on dexamethasone-induced myotube cell damage (MTT assay). The format is cell-based. The note with it: mouse, C2C12 cells differentiated into myotubes, 5 μM dexamethasone alone, read-out: decrease of cell viability compared to the control group not treated with dexamethasone. A general note: Tetrazolium dyes change colour on reduction, which living cells bring about.

Experimental: C2C12 cells, a myoblast derived from mouse skeletal muscle, were purchased from American Type Culture Collection (ATCC) and used. C2C12 cells were cultured in a 37° C.-wet CO2 incubator (5% CO2/95% air) using a cell culture medium in which 10% fetal bovine serum (FBS), 100 units/mL penicillin, and 100 μg/mL streptomycin were added to Dulbecco's Modified Eagle Medium (DMEM). When the cells were 80% full, the cell monolayer was washed with phosphate buffer saline (PBS, pH 7.4), trypsin-2.65 mM EDTA was added thereto, and the cells were detached and subcultured, and the medium was exchanged every 2 days. In order to induce differentiation into myotubes of C2C12 cells, the cells were cultured by exchange with a myocyte differentiation culture medium in which 2% horse serum (HS) was added to DMEM medium, and the myocyte differentiation culture medium was exchanged every 2 days.
C2C12 cells were seeded in 24-well plate at 5×10^4 cells/well and cultured for 24 hours. Thereafter, in order to induce differentiation into myotubes of C2C12 cells, the cell culture medium was exchanged with the myocyte differentiation culture medium to induce differentiation for 4 days. […] After the cells were cultured for 24 hours, MTT assay was performed in the same manner as described above to measure the cell viability.

With `C[C@@H]1C[C@H]2[C@@H]3CCC4=CC(=O)C=C[C@]4(C)[C@@]3(F)[C@@H](O)C[C@]2(C)[C@@]1(O)C(=O)CO` [dexamethasone], the cytotoxicity at 24 h, 5 μM was about 10%.
